SMILES strings stand for the structures.

Results on two molecules are retold here after patent publication US20050267221A1, “Use of curcumin and analogues thereof as inhibitors of ACC2” (Research Development Foundation, priority 2004, published 2005).

The target of one data set is recombinant human ACC2 (Homo sapiens, UniProt O00763). Put plainly: Radioactive assay of ACC2 activity ([14C]KHCO3 incorporation into malonyl-CoA). In kind it is biochemical. Here is the method: The reaction mixture contained 50 mM HEPES, pH 7.5, 2.5 mM MnCl2, 2.0 mM DTT, 0.125 mM acetyl-CoA, 4.0 mM ATP, 12.5 mM [^14C]KHCO3 (4×10^6 dpm), 0.75 mg/mL BSA, 10 mM tripotassium citrate and 0.1-0.2 μg ACC enzyme, in a total volume of 150 μL. The reaction was initiated by the addition of ACC2 and the assay was carried out at 37° C. for 2-7 min. The reaction was stopped by the addition of 50 μL of 6 N HCl. Subsequently, 150 μL was transferred into a glass scintillation vial and evaporated to dryness by heating to 85° C. in a heating block for 1 hour. The dried vials were cooled, 0.5 mL of water and 5 mL of ScintiSafe™ 30% were added, and the radioactivity was determined in a Beckman liquid scintillation counter (LS 3801). The tubes, where HCl was added before the addition of acetyl-CoA carboxylase, served as blanks. Avicin G and curcumin inhibitors were made up as stock solutions in water and DMSO, respectively, and added to the assay at the indicated concentrations such that the DMSO concentration was 1% (v/v). All reactions were performed in duplicate. Enzyme activity was based on radioactivity detected in malonyl-CoA and the dpm's set to 100% activity in the absence of any test compound. Inhibition by 1% (v/v) DMSO which was 16% was subtracted from values obtained in the dose response study.
recombinant human ACC2, sequence (O00763 whole entry): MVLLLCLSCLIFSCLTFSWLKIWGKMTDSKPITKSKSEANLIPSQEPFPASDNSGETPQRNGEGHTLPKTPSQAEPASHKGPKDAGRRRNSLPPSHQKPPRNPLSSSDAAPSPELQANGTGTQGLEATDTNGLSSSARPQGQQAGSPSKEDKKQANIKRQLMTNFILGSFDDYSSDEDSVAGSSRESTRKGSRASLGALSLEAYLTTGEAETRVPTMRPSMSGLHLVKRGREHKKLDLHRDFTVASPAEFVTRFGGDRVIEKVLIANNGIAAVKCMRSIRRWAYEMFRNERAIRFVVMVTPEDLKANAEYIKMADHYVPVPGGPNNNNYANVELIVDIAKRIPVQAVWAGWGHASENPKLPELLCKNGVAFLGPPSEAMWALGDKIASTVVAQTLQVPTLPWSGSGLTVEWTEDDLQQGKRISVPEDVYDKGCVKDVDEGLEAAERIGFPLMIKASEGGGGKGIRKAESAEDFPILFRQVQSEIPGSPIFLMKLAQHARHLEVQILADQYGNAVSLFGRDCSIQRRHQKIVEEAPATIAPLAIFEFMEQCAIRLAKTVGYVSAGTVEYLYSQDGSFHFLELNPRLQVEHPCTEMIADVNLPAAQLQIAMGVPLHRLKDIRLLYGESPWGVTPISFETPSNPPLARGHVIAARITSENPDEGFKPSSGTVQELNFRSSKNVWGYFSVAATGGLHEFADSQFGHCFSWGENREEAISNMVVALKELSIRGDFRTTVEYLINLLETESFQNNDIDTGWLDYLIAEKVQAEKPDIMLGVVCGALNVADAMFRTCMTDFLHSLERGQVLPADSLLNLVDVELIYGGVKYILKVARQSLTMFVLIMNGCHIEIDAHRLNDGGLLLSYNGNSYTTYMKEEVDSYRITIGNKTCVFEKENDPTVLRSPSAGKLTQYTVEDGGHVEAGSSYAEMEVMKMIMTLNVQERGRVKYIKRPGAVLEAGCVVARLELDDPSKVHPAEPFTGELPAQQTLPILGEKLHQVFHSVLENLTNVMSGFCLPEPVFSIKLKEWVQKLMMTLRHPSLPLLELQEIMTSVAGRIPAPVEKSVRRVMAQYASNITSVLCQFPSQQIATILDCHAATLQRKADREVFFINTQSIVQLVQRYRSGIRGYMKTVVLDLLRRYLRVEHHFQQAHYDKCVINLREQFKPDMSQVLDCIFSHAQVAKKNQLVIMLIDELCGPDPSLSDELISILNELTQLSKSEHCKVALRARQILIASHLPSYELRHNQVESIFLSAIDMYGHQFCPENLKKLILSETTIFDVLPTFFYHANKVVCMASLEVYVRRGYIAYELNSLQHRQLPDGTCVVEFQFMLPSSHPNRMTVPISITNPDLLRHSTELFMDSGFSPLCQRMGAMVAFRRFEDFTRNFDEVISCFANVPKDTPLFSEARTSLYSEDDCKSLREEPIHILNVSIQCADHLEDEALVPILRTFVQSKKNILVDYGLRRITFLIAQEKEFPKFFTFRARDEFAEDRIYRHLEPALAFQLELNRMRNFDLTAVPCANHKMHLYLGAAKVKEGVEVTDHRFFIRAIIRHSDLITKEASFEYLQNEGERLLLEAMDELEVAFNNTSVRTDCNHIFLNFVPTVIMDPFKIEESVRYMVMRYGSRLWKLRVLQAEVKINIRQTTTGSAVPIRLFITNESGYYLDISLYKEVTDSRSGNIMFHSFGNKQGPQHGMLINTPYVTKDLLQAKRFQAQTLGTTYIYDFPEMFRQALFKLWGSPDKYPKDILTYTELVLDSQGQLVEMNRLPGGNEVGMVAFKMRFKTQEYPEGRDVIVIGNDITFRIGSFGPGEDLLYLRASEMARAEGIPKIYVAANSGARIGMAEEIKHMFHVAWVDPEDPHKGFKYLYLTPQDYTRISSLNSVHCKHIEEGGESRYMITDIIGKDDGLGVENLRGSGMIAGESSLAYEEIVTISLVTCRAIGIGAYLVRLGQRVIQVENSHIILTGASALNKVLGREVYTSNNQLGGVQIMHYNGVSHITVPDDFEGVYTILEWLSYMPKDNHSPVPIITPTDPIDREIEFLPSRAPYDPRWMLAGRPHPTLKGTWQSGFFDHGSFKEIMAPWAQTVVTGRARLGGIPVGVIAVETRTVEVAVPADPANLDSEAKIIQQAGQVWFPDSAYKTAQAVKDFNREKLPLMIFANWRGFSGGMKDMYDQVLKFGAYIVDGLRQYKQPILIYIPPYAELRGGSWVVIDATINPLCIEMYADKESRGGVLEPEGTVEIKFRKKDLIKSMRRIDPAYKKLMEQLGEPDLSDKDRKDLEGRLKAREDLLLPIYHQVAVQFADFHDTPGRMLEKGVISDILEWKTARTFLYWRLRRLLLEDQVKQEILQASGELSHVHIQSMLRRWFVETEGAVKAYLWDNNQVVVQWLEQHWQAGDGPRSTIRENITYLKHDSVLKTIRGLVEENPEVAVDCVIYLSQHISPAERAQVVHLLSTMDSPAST
A dose-response series was conducted with curcumin (in DMSO) to verify a classical inhibition pattern. In this study, all curcumin concentrations were added in 1% (v/v) DMSO and the enzyme activity measured.
The radioactive assay (as described in Example 3) was used to determine effects of the test compounds, avicin G and curcumin, on human acetyl-CoA carboxylase 2.

The conditions of data set [1]: cited from earlier work.

As to `C=C[C@](C)(O)CC/C=C(\C)C(=O)O[C@H]1[C@H](O)[C@@H](O)[C@H](O[C@@](C)(C=C)CC/C=C(\CO)C(=O)O[C@H]2C[C@]3(C(=O)O[C@@H]4O[C@H](CO)[C@@H](O)[C@H](O)[C@H]4O[C@@H]4O[C@@H](C)[C@H](O[C@@H]5O[C@@H](CO)[C@H](O)[C@H]5O)[C@@H](O[C@@H]5O[C@H](CO)[C@@H](O)[C@H](O)[C@H]5O)[C@H]4O)[C@H](O)C[C@]4(C)C(=CC[C@@H]5[C@@]6(C)CC[C@H](O[C@@H]7O[C@H](CO[C@@H]8O[C@H](C)[C@H](O)[C@H](O)[C@H]8O[C@@H]8OC[C@@H](O)[C@H](O)[C@H]8O)[C@@H](O)[C@H](O)[C@H]7NC(C)=O)C(C)(C)[C@@H]6CC[C@]54C)[C@@H]3CC2(C)C)O[C@@H]1C` [avicin G], the “ACC Activity (%) ± S.D.” value at recombinant human ACC2 (human ACC2, additive at 50 μM, curcumin in 1% (v/v) DMSO final, activity without test compound = 100%, duplicate) worked out at 106 ± 7%. The “dose-response inhibition of ACC2 (in words)” value at recombinant human ACC2 (human ACC2, dose-response series, all concentrations in 1% (v/v) DMSO, FIG. 1) is “No significant inhibition”. For the same molecule, the “effect on ACC2 activity (in words)” value on recombinant human ACC2 (recombinant human ACC2, radioactive assay, conditions of Table 1) is on record as “no significant effect”.

In the case of `COc1cc(/C=C/C(=O)CC(=O)/C=C/c2ccc(O)c(OC)c2)ccc1O` [curcumin, 1,7,-bis(4-hydroxy-3-methoxyphenyl)-1,6-heptadiene-3,5-dione], at recombinant human ACC2 (human ACC2, additive at 50 μM, curcumin in 1% (v/v) DMSO final, activity without test compound = 100%, duplicate, read-out: ACC Activity (%) ± S.D.), the activity at 50 µM was determined as 57 ± 3%. Also, in data set [1] (dimethylsulfoxide), the solubility in dimethylsulfoxide entry is on record as “soluble”. Further, the solubility in ethanol result in data set [1] (ethanol) is “soluble”. Also, in data set [1] (ether), the solubility in ether entry is “insoluble”. The solubility in water result in data set [1] (water) is given as “insoluble”.
